Measured values from US9938273B2 (Plexxikon Inc., priority 2015, dated 2018).

Columns and labels:
c-KIT = molecular target: T1, c-KIT (Homo sapiens, UniProt P10721); assay: AlphaScreen kinase assay with recombinant enzyme, c-KIT; type: biochemical; conditions: 100ATP, 8pt, GMean
T1 construct: purchased Millipore 14-559K
Experimental: In order to determine the effect of compounds on FLT3 catalytic activity, kinase assays using recombinant enzymes and AlphaScreen® technology have been established. The catalytic activity of c-kit activity was also measured to determine selectivity of the compounds. When the kinases are catalytically active, they phosphorylate a biotinylated peptide substrate on tyrosine residues. Using AlphaScreen® technology, the ability of the compounds to affect the catalytic activity of the kinases can be measured quantitatively. The peptide substrate is immobilized by the AlphaScreen® Streptavidin Donor beads and, upon phosphorylation by a tyrosine kinase, can bind to AlphaScreen® Anti-Phosphotyrosine (PY20) Acceptor beads. Upon excitation of these beads with laser light at 680 nm, singlet oxygen is produced. This singlet oxygen is rapidly quenched, unless the AlphaScreen® Anti-Phosphotyrosine (PY20) Acceptor beads are in close proximity, in which case a proximity signal can be measured at 580 nm. In the presence of catalytic activity, there is a very strong proximity signal. Selective kinase inhibitors affect a decrease in this proximity signal through a decrease in tyrosine phosphorylation of the peptide substrate.
The assay was performed as summarized below.
Poly (Glu4-Tyr) Peptide, biotin conjugate [Biotin-GG(EEEEY)10EE] (SEQ ID NO: 4)
Final concentration=30 nM
Final concentration for IC50 determination=10 μM (FLT3-D835Y or FLT3-ITD) or 100 μM (c-KIT)
AlphaScreen® Phosphotyrosine (PY20) Assay Kit
Final concentration=10 μg/mL
Dilute compounds in DMSO to 20× final concentration.
Add 1 μl of compound to each well of 384 well reaction plate (Perkin Elmer #6005359).
Mix enzyme and Poly (Glu4-Tyr) Peptide substrate at 1.33× final concentration in assay buffer.
Mix ATP at 5× final concentration in assay buffer.
Add 15 μL enzyme/substrate mixture to the reaction plate.
Add 4 μL of ATP to the reaction plate.
Mix Streptavidin Donor beads at 6× final concentration in Stop/Detection buffer.
Add 5 μL Streptavidin Donor beads to the reaction plate. Centrifuge 1 minute, shake to mix, and incubate at room temperature for 20 minutes.
Mix Anti-Phosphotyrosine (PY20) Acceptor beads at 6× final concentration in Stop/Detection buffer.
Add 5 μL Anti-Phosphotyrosine (PY20) beads to the reaction plate.
Centrifuge 1 minute, shake to mix, and incubate at room temperature for 60 minutes.
Read plate on Wallac EnVision™ 2103 Multilabel Reader.

[1] = molecular target: T2, BA/F3-FLT3-ITD + D835Y cells (Homo sapiens, UniProt P36888, D835Y, cells depend on it, form not given); assay: Cell proliferation assay (CellTiter-Glo), engineered BA/F3 cells; type: cell-based, murine; conditions: BaF3 FLT3 ITD/D835Y cells, 3d-Growth; read-out: BaF3_FLT3 ITD/D835Y 3d-Growth: IC50
T2 sequence (P36888 1-993 D835Y): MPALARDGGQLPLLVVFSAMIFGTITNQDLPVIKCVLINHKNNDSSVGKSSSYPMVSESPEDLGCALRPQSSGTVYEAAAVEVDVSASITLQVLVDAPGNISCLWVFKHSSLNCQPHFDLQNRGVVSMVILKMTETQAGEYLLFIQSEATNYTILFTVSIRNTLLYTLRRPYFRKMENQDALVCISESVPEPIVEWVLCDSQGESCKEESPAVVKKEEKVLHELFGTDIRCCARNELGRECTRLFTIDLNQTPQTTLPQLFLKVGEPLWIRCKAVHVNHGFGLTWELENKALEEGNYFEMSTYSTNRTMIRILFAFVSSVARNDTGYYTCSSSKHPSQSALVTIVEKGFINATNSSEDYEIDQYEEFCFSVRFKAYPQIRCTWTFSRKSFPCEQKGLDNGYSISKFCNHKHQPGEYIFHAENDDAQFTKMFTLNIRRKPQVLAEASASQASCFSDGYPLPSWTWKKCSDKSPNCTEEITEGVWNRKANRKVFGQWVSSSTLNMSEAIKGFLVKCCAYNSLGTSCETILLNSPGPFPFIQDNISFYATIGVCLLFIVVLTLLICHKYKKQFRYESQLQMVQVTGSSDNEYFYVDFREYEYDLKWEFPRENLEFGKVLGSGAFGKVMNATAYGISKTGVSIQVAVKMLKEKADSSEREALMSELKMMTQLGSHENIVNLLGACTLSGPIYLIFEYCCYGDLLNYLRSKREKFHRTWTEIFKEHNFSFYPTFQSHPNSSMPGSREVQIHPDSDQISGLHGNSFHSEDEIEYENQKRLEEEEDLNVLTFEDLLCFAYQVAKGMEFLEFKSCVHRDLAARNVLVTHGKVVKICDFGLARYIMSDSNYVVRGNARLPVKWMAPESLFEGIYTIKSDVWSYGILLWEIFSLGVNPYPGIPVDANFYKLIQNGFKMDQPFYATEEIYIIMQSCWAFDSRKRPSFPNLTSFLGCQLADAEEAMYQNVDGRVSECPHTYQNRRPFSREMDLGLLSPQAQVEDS
Excerpt: The FLT3 inhibitors may be assessed using the MOLM-14, Acute Myeloid Leukemia cell line that endogenously expresses FLT3 ITD or derivatives of the human FLT3 AML cell line which acquired the D835Y (activation loop) of F691L (gatekeeper) mutation after selection in escalating doses of the FLT3 Inhibitor AC220. FLT3 inhibitors may also be assessed using cells that are engineered to express mutant FLT3. For engineered cells, murine Ba/F3 cells were transfected with full-length FLT3 ITD/D835Y mutations. The parental BA/F3 cells are dependent upon Interleukin-3 (IL-3) for survival, and introduction of the FLT3 constructs rendered these cells dependent upon FLT3 kinase activity when cultured in the absences of IL-3. Engineered BA/F3 cell growth assays can be performed in either the […] of IL-3, to assess the compound inhibition of FLT3 or to detect the presence of off-target activity, respectively. Inhibitors of FLT3 kinase activity reduce or eliminate the FLT3 oncogenic signaling, resulting in reduced cell proliferation. This inhibition is measured as a function of compound concentration to asses IC50 values.
Cell lines used in proliferation assays are as follows in Table 3:
Cells were seeded at 1×10^4 cells per well of a 96 well cell culture plate in 50 μl of cell culture medium. Compounds were dissolved in DMSO, typically at a concentration of 0.5 mM and were serially diluted 1:3 for a total of eight points and added to the cells to final concentrations of […], 0.0041, 0.0014 and 0.00046 μM in 100 μl cell culture medium (final concentration 0.2% DMSO). […] The cells were incubated at 37° C., 5% CO2 for three days. CellTiter-Glo Buffer (Promega Cell Viability Assay catalog #G7573) and substrate were equilibrated to room temperature, and enzyme/substrate Recombinant Firefly Luciferase/Beetle Luciferin was reconstituted. The cell plates were equilibrated to room temperature for 30 minutes, then lysed by addition of an equivalent volume of the Celltiter-Glo Reagent. The plate was mixed for 10 minutes on a plate shaker to lyse the cells. The plates were read on a Tecan M1000 using Luminescence protocol modified to read 0.1 s per well. The luminescence reading assesses the ATP content, which correlates directly with cell number such that the reading as a function of compound concentration was used to determine the IC50 value.

T1 sequence (P10721 26-976): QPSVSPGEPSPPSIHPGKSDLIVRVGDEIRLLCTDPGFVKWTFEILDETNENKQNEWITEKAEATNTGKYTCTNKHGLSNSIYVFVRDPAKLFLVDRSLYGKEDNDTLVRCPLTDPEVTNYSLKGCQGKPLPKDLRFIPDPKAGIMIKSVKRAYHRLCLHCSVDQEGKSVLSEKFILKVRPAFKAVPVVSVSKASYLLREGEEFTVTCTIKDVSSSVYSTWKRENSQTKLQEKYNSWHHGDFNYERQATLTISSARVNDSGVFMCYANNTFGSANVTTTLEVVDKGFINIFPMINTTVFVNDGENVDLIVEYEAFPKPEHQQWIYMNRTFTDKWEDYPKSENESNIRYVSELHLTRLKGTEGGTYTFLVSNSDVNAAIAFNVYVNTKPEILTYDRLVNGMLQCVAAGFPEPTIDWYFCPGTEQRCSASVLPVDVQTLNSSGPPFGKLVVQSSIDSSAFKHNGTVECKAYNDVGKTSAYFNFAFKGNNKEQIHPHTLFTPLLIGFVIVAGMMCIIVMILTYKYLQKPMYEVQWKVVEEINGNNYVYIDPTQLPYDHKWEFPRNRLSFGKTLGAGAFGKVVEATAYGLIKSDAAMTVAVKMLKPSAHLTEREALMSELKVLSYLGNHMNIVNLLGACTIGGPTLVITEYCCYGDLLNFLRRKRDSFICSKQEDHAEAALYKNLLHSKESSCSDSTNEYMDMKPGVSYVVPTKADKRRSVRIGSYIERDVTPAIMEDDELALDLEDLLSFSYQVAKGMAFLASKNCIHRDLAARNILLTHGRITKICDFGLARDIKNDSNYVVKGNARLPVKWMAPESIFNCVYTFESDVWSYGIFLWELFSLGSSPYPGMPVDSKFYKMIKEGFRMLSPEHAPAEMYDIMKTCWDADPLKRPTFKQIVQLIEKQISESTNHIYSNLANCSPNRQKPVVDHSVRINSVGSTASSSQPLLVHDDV

| SMILES | IC50 (c-KIT) [µM] | GI50 [1] [µM] |
| --- | --- | --- |
| CC(C)(C#N)CNC(=O)c1cccc(-c2cnc3[nH]c(-c4ccccc4)cc3c2)n1 [Compound P-0100, N-(2-cyano-2-methyl-propyl)-6-(2-phenyl-1H-pyrrolo[2,3-b]pyridin-5-yl)pyridine-2-carboxamide] | 10 to 50 | 0.0001 to 10 |
| N#CC1CCN(C(=O)c2cccc(-c3cnc4[nH]c(-c5ccccc5)cc4c3)n2)C1 (stereo not drawn) [Compound P-0105, 1-[6-(2-phenyl-1H-pyrrolo[2,3-b]pyridin-5-yl)pyridine-2-carbonyl]pyrrolidine-3-carbonitrile] | 10 to 50 | 0.0001 to 10 |
| CN[C@@H]1CCN(C(=O)c2ccc(-c3cnc4[nH]c(-c5ccccc5)cc4c3)s2)C1 [Compound P-0106, [(3R)-3-(methylamino)pyrrolidin-1-yl]-[5-(2-phenyl-1H-pyrrolo[2,3-b]pyridin-5-yl)-2-thienyl]methanone] | 0.0001 to 10 | 0.0001 to 10 |
| CS(=O)(=O)N1CCC(NS(=O)(=O)c2cccc(-c3cnc4[nH]c(-c5ccccc5)cc4c3)n2)C1 (stereo not drawn) [Compound P-0107, N-(1-methylsulfonylpyrrolidin-3-yl)-6-(2-phenyl-1H-pyrrolo[2,3-b]pyridin-5-yl)pyridine-2-sulfonamide] | 50 to 100 | 0.0001 to 10 |
| O=S(=O)(NC1CC1)c1cccc(-c2cnc3[nH]c(-c4ccccc4)cc3c2)n1 [Compound P-0109, N-cyclopropyl-6-(2-phenyl-1H-pyrrolo[2,3-b]pyridin-5-yl)pyridine-2-sulfonamide] | 50 to 100 | 0.0001 to 10 |
| N#CC1(NC(=O)c2cccc(-c3cnc4[nH]c(-c5ccccc5)cc4c3)n2)CC1 [Compound P-0111, N-(1-cyanocyclopropyl)-6-(2-phenyl-1H-pyrrolo[2.3-b]pyridin-5-yl]pyridine-2-carboxamide] | – | 0.0001 to 10 |
| N#CC1CCN(S(=O)(=O)c2cccc(-c3cnc4[nH]c(-c5ccccc5)cc4c3)n2)C1 (stereo not drawn) [Compound P-0121, 1-[[6-(2-phenyl-1H-pyrrolo[2,3-b]pyridin-5-yl)-2-pyridyl]sulfonyl]pyrrolidine-3-carbonitrile] | – | 0.0001 to 10 |
| N#C[C@@H]1CCN(C(=O)c2cccc(-c3cnc4[nH]c(-c5ccccc5)cc4c3)n2)C1 [Compound P-0122, (3R)-1-[6-(2-phenyl-1H-pyrrolo[2,3-b]pyridin-5-yl)pyridine-2-carbonyl]pyrrolidine-3-carbonitrile] | – | 0.0001 to 10 |
| N#CCCNC(=O)c1cccc(-c2cnc3[nH]c(-c4ccccc4)c(Cl)c3c2)n1 [Compound P-0125, 6-(3-chloro-2-phenyl-1H-pyrrolo[2,3-b]pyridin-5-yl)-N-(2-cyanoethyl)pyridine-2-carboxamide] | – | 0.0001 to 10 |
| CC(C)(C#N)CNC(=O)c1cccc(-c2cnc3[nH]c(-c4ccccc4)c(Br)c3c2)n1 [Compound P-0126, 6-(3-bromo-2-phenyl-1H-pyrrolo[2,3-b]pyridin-5-yl)-N-(2-cyano-2-methyl-propyl)pyridine-2-carboxamide] | – | 0.0001 to 10 |
| CC(C)(C#N)CNC(=O)c1cccc(-c2cnc3[nH]c(-c4ccccc4)c(I)c3c2)n1 [Compound P-0127, N-(2-cyano-2-methyl-propyl)-6-(3-iodo-2-phenyl-1H-pyrrolo[2,3-b]pyridin-5-yl)pyridine-2-carboxamide] | – | 0.0001 to 10 |
| CC(C)(C#N)NC(=O)c1cccc(-c2cnc3[nH]c(-c4cnn(C(F)F)c4)cc3c2)n1 [Compound P-0164, N-(2-cyanopropan-2-yl)-6-(2-(1-(difluoromethyl)-1H-pyrazol-4-yl)-1H-pyrrolo[2,3-b]pyridin-5-yl)picolinamide] | 50 to 100 | – |

Now from value to compound:

| IC50 (c-KIT) [µM] | GI50 [1] [µM] | SMILES |
| --- | --- | --- |
| 50 to 100 | 0.0001 to 10 | O=C(c1cccc(-c2cnc3[nH]c(-c4ccccc4)cc3c2)n1)N1CCC(F)(F)C1 [Compound P-0093, (3,3-difluoropyrrolidin-1-yl)-[6-(2-phenyl-1H-pyrrolo[2,3-b]pyridin-5-yl)-2-pyridyl]methanone] |
| 10 to 50 | 0.0001 to 10 | COC1CCN(C(=O)c2cccc(-c3cnc4[nH]c(-c5ccccc5)cc4c3)n2)C1 (stereo not drawn) [Compound P-0095, (3-methoxypyrrolidin-1-yl)-[6-(2-phenyl-1H-pyrrolo[2,3-b]pyridin-5-yl)-2-pyridyl]methanone] |
| 10 to 50 | 0.0001 to 10 | CNC(=O)C1CCN(C(=O)c2cccc(-c3cnc4[nH]c(-c5ccccc5)cc4c3)n2)C1 (stereo not drawn) [Compound P-0096, N-methyl-1-[6-(2-phenyl-1H-pyrrolo[2,3-b]pyridin-5-yl)pyridine-2-carbonyl]pyrrolidine-3-carboxamide] |
| 0.0001 to 10 | 0.0001 to 10 | O=C(c1cccc(-c2cnc3[nH]c(-c4ccccc4)cc3c2)n1)N1CCC(n2ccnc2)C1 (stereo not drawn) [Compound P-0097, (3-imidazol-1-ylpyrrolidin-1-yl)-[6-(2-phenyl-1H-pyrrolo[2,3-b]pyridin-5-yl)-2-pyridyl]methanone] |
| 50 to 100 | 0.0001 to 10 | N#CCCNC(=O)c1cccc(-c2cnc3[nH]c(-c4ccccc4)cc3c2)n1 [Compound P-0099, N-(2-cyanoethyl)-6-(2-phenyl-1H-pyrrolo[2,3-b]pyridin-5-yl)pyridine-2-carboxamide] |
